Measured values as given in ChEMBL document CHEMBL4354779, “Selective modulation of the cannabinoid type 1 (CB1) receptor as an emerging platform for the treatment of neuropathic pain” (Medchemcomm, 2019).

Columns and labels:
[1] = Ratio of drug uptake in C57BL/6 mouse brain to plasma at 0.5 to 27 umol/kg, sc measured after 60 mins by protein precipitation based LC-ESI-MS analysis; format: ADME, organism-based; conditions: 1 h
[2] = Ratio of drug uptake in Sprague-Dawley rat brain to plasma at 3 umol/kg, sc measured after 60 mins by protein precipitation based LC-ESI-MS analysis; format: ADME, organism-based; conditions: 1 h
[3] = test system: Rattus norvegicus; assay: Antiallodynic activity in Sprague-Dawley rat model of L5/L6 spinal nerve ligation-induced neuropathic pain at 2.5 umol/kg by up-and-down method relative to control; format: functional
[4] = target: T1, Cannabinoid receptor 2 (Homo sapiens, UniProt P34972); assay: Inhibition of 3H-CP55,940 tracer binding to human CB2 receptor expressed in Sf9 insect cell membranes after 1 hr by scintillation counting method
T1 sequence (P34972 whole entry): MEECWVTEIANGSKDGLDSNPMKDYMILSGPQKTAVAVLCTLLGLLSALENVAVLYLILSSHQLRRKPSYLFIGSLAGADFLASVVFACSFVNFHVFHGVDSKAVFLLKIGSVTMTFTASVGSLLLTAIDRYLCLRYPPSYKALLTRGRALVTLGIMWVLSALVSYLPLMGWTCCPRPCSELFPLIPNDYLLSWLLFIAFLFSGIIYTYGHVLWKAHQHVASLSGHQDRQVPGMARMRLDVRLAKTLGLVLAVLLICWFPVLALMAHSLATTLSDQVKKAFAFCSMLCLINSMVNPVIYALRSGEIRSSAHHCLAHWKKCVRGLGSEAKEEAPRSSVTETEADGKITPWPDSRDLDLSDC

[5] = target: T2, Cannabinoid receptor 1 (Homo sapiens, UniProt P21554); assay: Agonist activity at human CB1 receptor expressed in HEK293 cell membranes after 1 hr by scintillation counting method
T2 sequence (P21554 whole entry): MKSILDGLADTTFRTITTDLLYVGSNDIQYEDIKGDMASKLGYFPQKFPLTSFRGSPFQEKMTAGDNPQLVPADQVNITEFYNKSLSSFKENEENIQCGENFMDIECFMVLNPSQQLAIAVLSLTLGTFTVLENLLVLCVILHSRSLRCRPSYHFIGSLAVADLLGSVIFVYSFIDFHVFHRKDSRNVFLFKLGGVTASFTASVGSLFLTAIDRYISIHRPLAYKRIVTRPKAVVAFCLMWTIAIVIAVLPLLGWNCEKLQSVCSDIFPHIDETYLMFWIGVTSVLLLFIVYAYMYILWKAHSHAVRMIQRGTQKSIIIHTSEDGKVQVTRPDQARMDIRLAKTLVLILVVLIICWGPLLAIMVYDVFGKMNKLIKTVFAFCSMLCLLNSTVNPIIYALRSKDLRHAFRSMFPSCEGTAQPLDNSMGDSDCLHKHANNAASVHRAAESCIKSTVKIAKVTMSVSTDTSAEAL

[6] = target: T2, Cannabinoid receptor 1; assay: Inhibition of 3H-CP55,940 tracer binding to human CB1 receptor expressed in HEK293 cell membranes after 1 hr by scintillation counting method
[7] = target: T2, Cannabinoid receptor 1; assay: Agonist activity at human CB1 receptor
[8] = Brain to plasma permeability coefficient, Kp of compound in rat; format: ADME
[9] = target: T1, Cannabinoid receptor 2; assay: Agonist activity at human CB2 receptor
[10] = test system: Rattus norvegicus; assay: Antiallodynic activity in Sprague-Dawley rat model of L5/L6 spinal nerve ligation-induced neuropathic pain at 8 umol/kg by up-and-down method relative to control; format: functional
[11] = Ratio of drug uptake in C57BL/6 mouse brain to plasma at 1 to 16 umol/kg, sc measured after 60 mins by protein precipitation based LC-ESI-MS analysis; format: ADME, organism-based
[12] = Ratio of drug uptake in Sprague-Dawley rat brain to plasma at 1 to 8 umol/kg, sc measured after 60 mins by protein precipitation based LC-ESI-MS analysis; format: ADME, organism-based

**Q.** Which results are given for `CCOc1ccc(Cc2nc3cc(N(C)S(=O)(=O)c4cccs4)ccc3n2CC2CCCCC2)nc1`?
**A.** Ratio [1]: 5%; Ratio [2]: 7%; Activity [3]: 100%; IC50 [4]: 1 nM; EC50 [5]: 10 nM; IC50 [6]: 3.98 nM

**Q.** For `CC(C)(C)c1nc2cc(NS(C)(=O)=O)ccc2n1CC1CCC(F)(F)CC1`, which Ki [7] is on record?
**A.** The Ki was 11.7 nM.

**Q.** And the Kp [8]?
**A.** The Kp was 0.04.

**Q.** And the Ki [9]?
**A.** Its Ki is 0.871 nM.

**Q.** For `Cc1c(C(=O)c2cccc3ccccc23)c2cccc3c2n1C[C@H](CN1CCOCC1)O3`, which Activity [10] is on record?
**A.** The Activity was 100%.

**Q.** What about the Kp at 1 h [11] of the same compound?
**A.** The Kp at 1 h was 4.2.

**Q.** What about the Kp at 1 h [12] of the same compound?
**A.** Its Kp at 1 h is 2.2.
